Results taken from US10758527B2, “Opioid agonist antagonist combinations” (Alkermes Pharma Ireland Limited, priority 2011, dated 2020).

How the values were obtained:
[1] = test system: dopamine efflux in the Nucleus Accumbens shell (NAc-sh); assay: In vivo microdialysis of dopamine efflux in free-moving rats; conditions: antagonist given with Buprenorphine (0.1 mg/kg, SC)
Description: Experiments were conducted in rats to assess the ability of opioid antagonists to modulate buprenorphine-induced dopamine efflux in the Nucleus Accumbens shell (NAc-sh) region of the mesolimbic region of the brain. Male rats weighing 300-400 grams were used for all studies. To measure the efflux of dopamine in the NAc-sh an in vivo microdialysis method was utilized in free-moving rats. This method allows the sampling of extracellular cerebrospinal fluid (C SF) from specific brain regions of interest and measurement of neurotransmitter concentrations following the analysis of sampled dialysate with HPLC-EC.
Each rat underwent surgical implantation of microdialysis guide cannula (CMA 12, CMA Microdialysis) to guide the insertion of the microdialysis probe later on. Rats were anesthetized with a mixture of ketamine/xylazine (80/6 mg/kg IP) and placed in a stereotaxic apparatus. […] Guide cannula were capped with dummy probes until microdialysis probe insertion. On the day prior to experimentation (3-4 days post-surgery), animals were weighed to determine appropriate dose for test articles. A microdialysis probe (CMA 12, 2 mm membrane, CMA microdialysis) was then inserted through the guide cannula. […] Each sample was analyzed via HPLC-EC to determine neurotransmitter concentration of dopamine based upon a six-point standard curve.

Wistar-Kyoto (WKY) rats = assay: Forced swim test (FST); conditions: WKY rats treated with Buprenorphine (0.1 mg/kg)
Description: In the “forced swim test” (FST) rats are placed in a tank of water, from which they cannot escape, on two successive days; 15 minutes on the first day and 5 minutes on the second day. While in the water they will swim, attempt to climb the container wall or become “immobile” floating in the water. The total time rats are immobility increases between the first and second day. […] At 24 h after the first swim, rats were retested for 5 minutes. Videos were scored manually for immobility time (in seconds) using a manual stop watch in 60 second intervals by a rater blinded to the treatment groups. A rat was judged to be immobile if it was making only movements necessary to keep its head above water.

Compound: O=C1CC[C@@]2(O)[C@H]3Cc4ccc(O)c5c4[C@@]2(CCN3CC2CC2)[C@H]1O5 [Naltrexone, naltrexone, reference compound]
- effect on buprenorphine-induced NAc-sh dopamine efflux [1]: Reduction in the efflux of dopamine

Compound: C=C1CC[C@@]2(O)[C@H]3Cc4ccc(O)c5c4[C@@]2(CCN3CC2CC2)[C@H]1O5 [Nalmefene, nalmefene, reference compound]
- effect on buprenorphine-induced NAc-sh dopamine efflux [1]: Reduction in the efflux of dopamine

Compound: NC(=O)c1ccc2c(c1O)[C@]13CCN(CC4CC4)[C@H](C2)[C@]1(O)CCC(=O)C3 [Compound-1]
- immobility in forced swim test with increased concentrations of Compound-1 (Wistar-Kyoto (WKY) rats): Increase in immobility
- effect on buprenorphine-induced NAc-sh dopamine efflux [1]: Reduction in the efflux of dopamine

Compound: C=C1CC[C@@]2(O)[C@H]3Cc4ccc(C(N)=O)c(O)c4[C@@]2(CCN3CC2CC2)C1 [Compound-10]
- effect on buprenorphine-induced NAc-sh dopamine efflux [1]: Reduction in the efflux of dopamine
